ChEMBL document CHEMBL1121969, “Synthesis and antiviral properties of some 2'-deoxy-5-(fluoroalkenyl)uridines” (1982)
≈ marks a conversion by molar mass, not a printed value.

tested on: Human alphaherpesvirus 1; assay: Antiviral activity against various strains of Herpes Simplex virus type I; type: functional; settings: read-out: ID50 (the source's name)

With O=c1[nH]c(=O)n([C@H]2C[C@H](O)[C@@H](CO)O2)cc1/C(F)=C(\F)Cl.O=c1[nH]c(=O)n([C@H]2C[C@H](O)[C@@H](CO)O2)cc1C(F)=C(Cl)Cl as the compound, how does the IC50 read?
Its IC50 is 24 µg/mL.

With O=c1[nH]c(=O)n([C@H]2C[C@H](O)[C@@H](CO)O2)cc1C(F)=C(Cl)Cl as the compound, how does the IC50 read?
Its IC50 is 26 µg/mL (≈ 76.2 µM).

How did the IC50 turn out when Nc1nc2c(ncn2COCCO)c(=O)[nH]1 [ACYCLOVIR] was run?
The IC50 was 0.8 µg/mL (≈ 3.55 µM).

For Nc1ncnc2c1ncn2[C@@H]1O[C@H](CO)[C@@H](O)[C@H]1O [ADENOSINE], which IC50 is on record?
Its IC50 is 21 µg/mL (≈ 78.6 µM).

For O=c1[nH]c(=O)n([C@H]2C[C@H](O)[C@@H](CO)O2)cc1/C=C/Br [BRIVUDINE], which IC50 is on record?
Its IC50 is 0.07 µg/mL (≈ 0.21 µM).

How did the IC50 turn out when O=c1[nH]c(=O)n([C@H]2C[C@H](O)[C@@H](CO)O2)cc1I [IDOXURIDINE] was run?
The IC50 was 4.4 µg/mL (≈ 12.4 µM).
